According to patent publication US20240115588A1, “USE OF PROTEASOME INHIBITORS IN THE TREATMENT OF CORONAVIRUS INFECTIONS” (priority 2021, published 2024):

What was measured:
[1] = test system: 2019 Novel Coronavirus, Isolate USA-WA1/2020 (SARS-CoV-2); test: In vitro efficacy in Calu-3 lung cells, immunostaining assay; format: cell-based
[2] = test system: 2019 Novel Coronavirus, Isolate USA-WA1/2020 (SARS-CoV-2); test: In vitro efficacy in Vero E6 cells, immunostaining assay (second testing series); format: cell-based; conditions: for EC50: Severe acute respiratory syndrome coronavirus 2, Vero C1008
[3] = target: β5 chymotrypsin-like subunit of the 20S proteolytic site of the proteasome (Homo sapiens, UniProt P28074); conditions: proteasome inhibitor dissociation; cited from earlier work
SARS-CoV-2 = conditions: cited from earlier work; for dose for complete prevention of CPE: Vero E6, shorter drug treatment time, bortezomib could not completely prevent CPE at these doses
[4] = cited from earlier work
human plasma protein = conditions: IV administered bortezomib; average; cited from earlier work
Vero E6 cells [5] = conditions: cited from earlier work
Vero E6 cells [6] = conditions: ranking of drugs for expected efficacy against SARS-CoV-2; cited from earlier work
[7] = Vero E6, shorter treatment schedule

CC(C)C[C@H](NC(=O)[C@H](Cc1ccccc1)NC(=O)c1cnccn1)B(O)O [Bortezomib]
EC50 ([1]; Calu-3 lung cells, MOI 0.001 TCID50/cell, immunostaining at 48±6 hours post inoculation, preliminary results, read-out: EC50): 6.9 nM | EC100 ([1]; Calu-3 lung cells, whether EC100 was achieved): Achieved | EC50 ([1]; Severe acute respiratory syndrome coronavirus 2, Calu-3, Calu-3 lung cells, MOI 0.001 TCID50/cell, immunostaining at 48±6 hours post inoculation, preliminary results, read-out: EC50): 7.8 nM | EC50 ([2]; Vero E6 cells, MOI 0.001 TCID50/cell, immunostaining at 48±6 hours post inoculation, read-out: EC50): 9.92 nM | EC100 ([2]; Vero E6 cells, whether EC100 was achieved): Achieved | dissociation half-life [3]: 1.83 h | dose for complete prevention of CPE (SARS-CoV-2): > 30 µM | doses at which inhibition of virus-induced cytopathic effects was observed (SARS-CoV-2; [7]): > 30 µM | concentration inhibiting virus-induced cytopathic effects (CPE) (SARS-CoV-2; Vero E6 cells infected with SARS-CoV-2): 0.05 µM | bioavailability ([4]; IV administration or subcutaneous injection): 100% | time to peak plasma levels ([4]; after IV administration): approximately 5 minutes | in vitro binding to human plasma protein (human plasma protein): 83% | doses at which cytotoxicity was observed (Vero E6 cells [5]; [7]): > 30 µM | concentration at which cytotoxicity was observed (Vero E6 cells [5]; Vero E6 cells): 2 nM | category in algorithmic prediction study (Vero E6 cells [6]): cytotoxic drug

CC(C)C[C@H](NC(=O)CNC(=O)c1cc(Cl)ccc1Cl)B(O)O [Ixazomib]
dissociation half-life [3]: 0.3 h

CCC(CC)COC(=O)[C@H](C)N[P@](=O)(OC[C@H]1O[C@@](C#N)(c2ccc3c(N)ncnn23)[C@H](O)[C@@H]1O)Oc1ccccc1 [Remdesivir]
EC50 ([1]; Severe acute respiratory syndrome coronavirus 2, Calu-3): 252 nM | EC50 [2]: 1150 nM

CCN(CC)CCCC(C)Nc1ccnc2cc(Cl)ccc12 (stereo not shown) [chloroquine]
dose for complete prevention of CPE (SARS-CoV-2): 15 µM
